Experimental data reported in patent US10364216B2, “Alkenyl sulfate ester or salt thereof” (Kao Corporation, priority 2013, dated 2019).
Structures can show the parent of a compound that is named as a salt.

Key:
[1] = target: T1, ENaC complex (human ENaCα, β and γ) (Homo sapiens, UniProt P37088+P51168+P51170); experiment: ENaC inhibition activity, two-electrode voltage clamp in Xenopus oocytes; assay type: cell-based; conditions: 3 to 30 mM; membrane potential −60 mV; 115 mM NaCl solution; FIG. 1
T1 construct: host or cells: Xenopus oocytes injected with cRNA
T1 sequence (P37088 1-669): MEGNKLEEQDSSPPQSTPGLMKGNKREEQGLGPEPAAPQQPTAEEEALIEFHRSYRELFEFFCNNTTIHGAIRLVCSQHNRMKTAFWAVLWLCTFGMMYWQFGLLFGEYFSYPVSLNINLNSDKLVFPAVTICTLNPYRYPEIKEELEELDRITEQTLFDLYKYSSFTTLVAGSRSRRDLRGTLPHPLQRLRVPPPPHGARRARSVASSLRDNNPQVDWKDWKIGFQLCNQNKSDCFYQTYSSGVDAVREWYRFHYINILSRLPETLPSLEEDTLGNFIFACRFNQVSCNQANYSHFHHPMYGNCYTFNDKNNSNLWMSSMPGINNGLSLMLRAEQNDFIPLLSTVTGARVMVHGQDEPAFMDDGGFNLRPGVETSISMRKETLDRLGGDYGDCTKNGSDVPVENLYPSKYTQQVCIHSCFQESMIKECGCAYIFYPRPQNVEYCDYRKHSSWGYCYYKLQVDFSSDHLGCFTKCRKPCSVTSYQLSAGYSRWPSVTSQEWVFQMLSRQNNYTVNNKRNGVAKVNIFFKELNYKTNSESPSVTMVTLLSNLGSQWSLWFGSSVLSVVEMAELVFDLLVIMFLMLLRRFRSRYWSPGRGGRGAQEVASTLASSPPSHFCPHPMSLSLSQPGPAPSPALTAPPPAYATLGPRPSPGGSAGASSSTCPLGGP
T1 sequence (P51168 1-640): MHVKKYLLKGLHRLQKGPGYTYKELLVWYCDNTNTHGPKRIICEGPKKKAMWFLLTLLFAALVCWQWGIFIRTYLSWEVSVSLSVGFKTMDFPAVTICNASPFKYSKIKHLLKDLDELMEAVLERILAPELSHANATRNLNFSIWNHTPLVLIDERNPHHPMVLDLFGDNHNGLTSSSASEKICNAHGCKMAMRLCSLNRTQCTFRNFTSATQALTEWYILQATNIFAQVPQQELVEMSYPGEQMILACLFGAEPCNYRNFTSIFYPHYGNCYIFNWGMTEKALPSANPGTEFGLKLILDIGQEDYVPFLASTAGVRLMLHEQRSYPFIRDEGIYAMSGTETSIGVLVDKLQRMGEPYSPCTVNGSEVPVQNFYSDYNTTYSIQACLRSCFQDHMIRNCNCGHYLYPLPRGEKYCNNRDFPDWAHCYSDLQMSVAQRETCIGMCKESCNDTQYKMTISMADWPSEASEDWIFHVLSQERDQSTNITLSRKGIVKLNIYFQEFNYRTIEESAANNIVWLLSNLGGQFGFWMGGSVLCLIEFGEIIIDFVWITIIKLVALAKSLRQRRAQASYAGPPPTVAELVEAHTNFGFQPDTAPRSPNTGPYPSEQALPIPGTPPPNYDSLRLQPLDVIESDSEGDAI
T1 sequence (P51170 1-649): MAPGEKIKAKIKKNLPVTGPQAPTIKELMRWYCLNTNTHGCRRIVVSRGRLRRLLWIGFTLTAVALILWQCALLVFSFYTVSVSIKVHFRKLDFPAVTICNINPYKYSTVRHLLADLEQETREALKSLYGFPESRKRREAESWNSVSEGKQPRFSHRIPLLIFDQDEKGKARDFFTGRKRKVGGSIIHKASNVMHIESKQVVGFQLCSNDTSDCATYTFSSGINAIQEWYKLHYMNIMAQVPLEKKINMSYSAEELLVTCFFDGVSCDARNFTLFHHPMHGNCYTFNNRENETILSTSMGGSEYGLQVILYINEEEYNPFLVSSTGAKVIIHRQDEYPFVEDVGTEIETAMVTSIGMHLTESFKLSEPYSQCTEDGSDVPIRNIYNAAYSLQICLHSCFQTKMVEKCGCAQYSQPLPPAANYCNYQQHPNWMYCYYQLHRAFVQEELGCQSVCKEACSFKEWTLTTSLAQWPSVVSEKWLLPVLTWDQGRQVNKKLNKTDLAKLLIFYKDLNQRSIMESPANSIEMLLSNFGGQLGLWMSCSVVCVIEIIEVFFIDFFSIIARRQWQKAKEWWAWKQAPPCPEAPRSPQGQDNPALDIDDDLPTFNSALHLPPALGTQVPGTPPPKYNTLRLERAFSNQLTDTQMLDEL
Procedure: (§1) Inhibition activity of ENaC expressed in Xenopus oocytes was measured according to the method described in “The journal of biological chemistry, 284 (2): pages 792-798 (2009)”. Specifically, trans-3-octenyl sulfate was added to oocytes expressed with ENaC complex, and the activity of ENaC was analyzed electrophysiologically in accordance with the procedures described below.
First, DNA sequences encoding human ENaCα, β and γ, respectively were obtained by carrying out PCR using a plasmid vector on which the same gene was cloned (manufactured by Clontech Laboratories, Inc.) as a template. The obtained PCR amplification fragment was integrated into a transcription vector pSP64 (manufactured by Promega Corporation), and pSP64/ENaCα, pSP64/ENaCβ and pSP64/ENaCγ were manufactured, respectively.
pSP64/ENaCα and pSP64/ENaCγ were digested with EcoRI, and pSP64/ENaCβ was digested with PvuII, respectively, whereby linearize the plasmid DNA. […]
The obtained aqueous solutions of cRNA encoding ENaCα, ENaCβ and ENaCγ respectively were mixed in the same quantity, and injected by 50 ng per one Xenopus oocyte. […]
Two micro-glass electrodes were inserted into the oocyte, and the membrane potential was fixed at −60 mV. At this time, Na^+ ion influx induced by ENaC complex in a constantly active state was measured with replacement to change of the current amount. […]

[2] = test system: oocytes not expressing ENaC; experiment: Control: inward current in oocytes not expressing ENaC; assay type: cell-based, Xenopus; conditions: same procedure
Procedure: as §1
Two micro-glass electrodes were inserted into the oocyte, and the membrane potential was fixed at −60 mV. At this time, Na^+ ion influx induced by ENaC complex in a constantly active state was measured with replacement to change of the current amount. Namely, in 115 mM NaCl solution (115 mM NaCl, 2.5 mM KCl, 1.8 mM CaCl2, 1 mM NaHCO3, 1 mM MgCl2 and 10 mM HEPES, pH 7.4) and under circumstances where inward current was caused by the oocytes, trans-3-octenyl sulfate dissolved in the same solution was administered.
This effect was similar to that of an existing ENaC inhibitor amiloride.

CCCC/C=C/CCOS(=O)(=O)O [trans-3-octenyl sulfate]
Effect on inward current of ENaC expressing oocytes [1]: inhibited inward current of ENaC expressing oocytes concentration-dependently
Effect on inward current in oocytes not expressing ENaC [2]: not recognized
